Results taken from patent US10968214B2, “KRas G12C inhibitors” (Eli Lilly and Company, priority 2018, dated 2021).
Like-named read-outs stand apart in the source and are kept apart here.

Tests used:
Format in all cases: cell-based
H2030 = experiment: CellTiterGlo Cell Proliferation Assay, H2030; conditions: Homo sapiens, NCI-H2030, KRas G12C, Lung, 96 hr
Protocol: (§1) A panel of tumor cell lines harboring KRas G12C or other KRas mutations are collected (Table 6). All cell lines are from ATCC or other sources indicated.
(§2) Typically cells are cultured in RPMI1640 or Dulbecco's modified Eagle's medium (DMEM, GIBCO) supplemented with 10% FBS (GIBCO, Invitrogen). For 2D culture cells (4×10^3/well) maintained in growth medium described above, are plated onto 96 well tissue culture plates Corning® Cat. 3603) a day before the treatment. For 3D culture 8000 cells/well are seeded onto 96 well ultra-low attachment tissue culture plates (Corning, #3474). The cells are treated compound for 96 hr, and then are analyzed for viability using the CellTiterGlo® Luminescent Cell Viability Assay® (Promega #G7572 for 2D and Promega #G9683 for 3D cultures) according to manufacturer's instructions and an EnVision™ plate reader. Nonlinear regression and sigmoidal dose-response curves are used to calculate the half maximal inhibitory concentration (IC50) with GraphPad Prism 4® software.

EL3187 = experiment: CellTiterGlo Cell Proliferation Assay, EL3187; conditions: KRas G12C, Lung, 96 hr
Protocol: as §1, §2

H358 = experiment: CellTiterGlo Cell Proliferation Assay, H358; conditions: Homo sapiens, NCI-H358, KRas G12C, Lung, 96 hr
Protocol: as §1, §2

[1] = target: T1, constitutive RAS GTPAse activity in H358 cells (Homo sapiens, UniProt P01116, G12C); experiment: H358 Cellular Active RAS GTPase ELISA; conditions: 2 hr
T1 construct: host or cells: H358 human lung cancer cells
Text: This assay is used to measure the ability of test compounds to inhibit constitutive RAS GTPAse activity in human lung cancer cells H358 (ATCC CRL-5807). The RAS GTPase ELISA kit (Active Motif Cat #52097) contains a 96-well plate pre-coated with glutathione in order to capture a kit-supplied GST-Raf-RBD protein. Activated RAS (GTP-bound) in cell extracts specifically bind to the Raf-RBD. Bound RAS is detected with a primary antibody that recognizes human KRas. A secondary antibody conjugated with HRP recognizes the primary antibody and a development solution provides a chemiluminescent readout.
H358 cells are plated at 80,000 cells/well in 90 μL serum free media (RPMI 1640, GIBCO) and incubated overnight at 37° C./5% CO2. The next morning, 10 μL of serially-diluted (3-fold) test compounds (500 μM top concentration) and 10 μL of controls (Maximum signal wells: 5% DMSO and Minimum signal wells: 500 μM LSN3429410 as an inhibitor) are added to the cell plate and incubated for 2 hr at 37° C./5% CO2. Complete Lysis/Binding Buffer is prepared containing Protease Inhibitor cocktail and GST-Raf-RBD and stored on ice. One hour before cell plate incubation is completed, 50 μL of GST-Raf-RBD is diluted in lysis/binding buffer, and buffer is added to the ELISA assay plate and which is incubated for 1 hour at 4° C. with gently rocking. After 2 hr, the cells are washed with 100 μL ice-cold PBS and lysed with 100 μL lysis/binding buffer. The cell plate is shaken for 10 min at RT. The cell plate is then centrifuged at 1500 rpm for 10 min at RT. During this time, 1× Wash Buffer is prepared at RT and then is used to wash (3×100 μL) the GST-Raf-RBD coated assay plate. After washing, 50 μL of cell lysate is added to the GST-Raf-RBD coated assay plate and incubated for 1 hour at RT with gentle shaking. During this incubation period, 1× Antibody Binding Buffer is prepared and brought to RT. The assay plate is washed 3×100 μL with 1× Wash Buffer and then 50 μL of Primary Antibody (diluted 1:500 in 1× Antibody Binding buffer) is added. The plate is incubated for 1 hour at RT. The assay plate is washed 3×100 μl with 1× Wash Buffer and then 50 μL of Secondary Antibody (diluted 1:5000 in 1× Antibody Binding buffer) is added and incubated for 1 hour at RT. The assay plate is washed 4×100 μL with 1× Wash buffer and then 50 μL of chemiluminescent working solution is added at RT. The assay plate is then read on an EnVision™ Plate Reader (Perkin Elmer) using a luminescence program.
The signal is converted to percent inhibition using the following equation: % Inhibition=100−[(Test Compound Signal−Median Minimum Signal)/(Median Maximum Signal−Median Minimum Signal)×100]. The Maximum signal is a control well without inhibitor.

UM-UC-3 = experiment: CellTiterGlo Cell Proliferation Assay, UM-UC-3; conditions: Homo sapiens, UMUC3, KRas G12C, Bladder, 96 hr
Protocol: as §1, §2

[2] = read-out: IC50 (μM) in 2 D cell proliferation
[3] = read-out: IC50 (μM) in 3 D spheroid cell proliferation

T1 sequence (P01116 1-188 isoform P01116-2 G12C): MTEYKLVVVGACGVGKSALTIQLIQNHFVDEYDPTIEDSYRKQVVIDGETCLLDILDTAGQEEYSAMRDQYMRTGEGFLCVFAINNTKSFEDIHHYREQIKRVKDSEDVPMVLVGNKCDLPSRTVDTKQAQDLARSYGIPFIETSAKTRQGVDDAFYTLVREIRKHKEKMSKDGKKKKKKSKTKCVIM

C=CC(=O)N1CCN(c2ncnc3c(F)c(-c4ccc(F)c5sc(N)nc45)c(Cl)cc23)CC1 [Example 1, 1-{4-[7-(2-Amino-7-fluoro-1,3-benzothiazol-4-yl)-6-chloro-8-fluoroquinazolin-4-yl]piperazin-1-yl}prop-2-en-1-one]
IC50 (H2030; [2]): 6.88 µM | IC50 (H2030; [3]): 0.003 µM | IC50 (EL3187; [2]): 0.003 µM | IC50 (EL3187; [3]): 0.013 µM | IC50 (H358; [2]): 0.041 µM | IC50 (H358; [3]): 0.026 µM | IC50 ([1]; read-out: RAS-GTP): 37.1 nM | IC50 ([1]; read-out: relative IC50): 37 nM | IC50 (UM-UC-3; [2]): 0.124 µM | IC50 (UM-UC-3; [3]): 0.075 µM
